Measured values taken from PMC12461339, “Benzoylselenoureas: A Novel Dual-Action Inhibitor Targeting Fungal Growth and Urease Activity in Cryptococcus neoformans” (ACS Omega, 2025).
≈ marks a conversion by molar mass, not a printed value. Where “and” joins values, the source holds several entries; their conditions need not be identical. Equal values may be shown once. Read-outs that look alike come from different tables or passages of the source.

What was measured:
[1] = system: C. neoformans H99; assay: Broth microdilution antifungal assay (MIC) in RPMI or urea medium; type: cell-based; conditions: Cryptococcus neoformans
Experimental: (§1) C. neoformans H99 (or ATCC 208821), a standard strain, was used to evaluate the antifungal activity of BSU1-BSU11 and BTU1-BTU11 compounds using the broth microdilution method. The assay was performed in two different culture media: the standard medium RPMI 1640 buffered with […] (RMPI), and the Christensen broth (urea medium: 1 g/L peptone, 1 g/L dextrose, 5 g/L sodium chloride, 2 g/L potassium phosphate, 20 g/L urea, 12 mg/L phenol red, pH 7.0). The compounds were dissolved in dimethyl sulfoxide (DMSO) and diluted in both media, obtaining final concentrations from 0.03 to 128 mg/L in a 96-well plate and final DMSO concentration below 0.5%, considered nontoxic. For assay, yeasts were distributed in each well to obtain a final inoculum of 0.5–2.5 × 10^3 CFU/mL, and the plate was incubated at 35 °C for 48 h.
(§2) The MIC values were determined in both media and were defined as the lowest concentrations of BSU1-BSU11 and BTU1-BTU11 that inhibited 50% of fungal growth visually compared with untreated yeasts (growth control). In addition, the urease activity was indicated by medium color change from orange to pink due to ammonia production and the MICure was defined as the lowest concentration that inhibited the urease activity by visual inspection in urea medium with no color changes. For both assays, two controls were included: untreated yeast group for observation of fungal growth pattern or intracellular urease activity, and wells containing only medium for assay sterility control.

[2] = target: T1, yeast urease activity (Cryptococcus neoformans, UniProt O13465); assay: Inhibition of yeast urease activity in urea (Christensen) medium, colour change (MICure); type: cell-based
T1 construct: endogenous in cells; host or cells: Cryptococcus neoformans H99 (ATCC 208821) yeasts in Christensen urea broth
T1 sequence (O13465 whole entry): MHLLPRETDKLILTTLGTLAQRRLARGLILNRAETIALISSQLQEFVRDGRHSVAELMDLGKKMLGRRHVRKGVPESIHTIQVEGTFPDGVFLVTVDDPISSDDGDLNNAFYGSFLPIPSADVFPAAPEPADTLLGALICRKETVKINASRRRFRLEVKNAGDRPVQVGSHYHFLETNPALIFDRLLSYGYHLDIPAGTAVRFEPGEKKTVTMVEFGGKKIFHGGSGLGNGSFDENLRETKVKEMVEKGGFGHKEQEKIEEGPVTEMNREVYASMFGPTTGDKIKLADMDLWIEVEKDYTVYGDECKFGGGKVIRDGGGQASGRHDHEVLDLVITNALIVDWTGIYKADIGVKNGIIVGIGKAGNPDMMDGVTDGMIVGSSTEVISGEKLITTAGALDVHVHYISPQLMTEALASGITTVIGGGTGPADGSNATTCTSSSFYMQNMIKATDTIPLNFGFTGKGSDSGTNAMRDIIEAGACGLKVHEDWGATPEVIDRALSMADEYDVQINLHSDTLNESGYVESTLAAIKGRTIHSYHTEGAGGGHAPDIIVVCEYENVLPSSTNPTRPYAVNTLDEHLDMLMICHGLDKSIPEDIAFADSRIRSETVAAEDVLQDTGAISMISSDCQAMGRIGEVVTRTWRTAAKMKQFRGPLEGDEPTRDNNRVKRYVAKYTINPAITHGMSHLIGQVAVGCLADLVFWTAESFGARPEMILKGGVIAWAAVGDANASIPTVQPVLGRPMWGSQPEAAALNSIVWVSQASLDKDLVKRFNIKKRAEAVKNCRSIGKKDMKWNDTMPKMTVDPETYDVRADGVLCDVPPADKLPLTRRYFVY
Experimental: The inhibitory activity against yeast urease was assessed using Christensen’s medium, which contains urea to induce URE1 gene expression. […] Even in the presence of fungal growth, inhibition of urease activity was evidenced by the absence of medium color change, indicating suppressed ammonia production.
as §1, §2

[3] = system: C. neoformans H99; assay: Minimum fungicidal concentration by subculturing after MIC reading; type: cell-based; conditions: Cryptococcus neoformans
Experimental: After MIC readings, the MFC values were determined by subculturing, at 35 °C for 48 h, of all concentrations that inhibited the fungal growth; and then MFC was defined as the lowest concentration of the compound capable of reducing ≥99% viability of the initial fungal inoculum. ,

[4] = target: T2, C. neoformans urease (Cryptococcus neoformans, UniProt O13465); assay: Urease activity in crude protein extract, indophenol method; type: biochemical; conditions: ureIC50, BSU series
T2 construct: endogenous in cells; host or cells: Cryptococcus neoformans H99, lysed by sonication; dialysed and lyophilised soluble fraction (total protein)
T2 sequence (O13465 whole entry): as above
Experimental: C. neoformans H99 yeasts were cultivated in 100 mL of Christensen broth for 72 h at 35 °C by shaking at 200 rpm for the obtention of urease as previously described. Briefly, the yeasts were ruptured using a lysis buffer (40 mM Tris-HCl, 20 mM dithiothreitol, 4% Triton X-100, 1 mM ethylenediaminetetraacetic acid, 2 mM phenylmethylsulfonyl fluoride, protease inhibitor cocktail) and an ultrasonic sonicator. After centrifugation, the soluble fraction was dialyzed in a dialysis membrane submerged in 10 mM sodium phosphate buffer, pH 7.0; the sample was lyophilized and stored at −20 °C. Before the assay, the sample was resuspended in 1 mL of sodium phosphate buffer (10 mM, pH 7.0), and the total protein was quantified by the Bradford method.
The urease activity was determined by the indophenol method. In a 96-well microplate, 10 μL of 100 mM urea was added to 45 μL of total protein and 45 μL of BSU1-BSU11 (concentrations of 0.06–1000 μg/L) in phosphate buffer. The reaction was maintained for 10 min under shaking at 600 rpm, at room temperature. Then, 45 μL of solution A (1% phenol; 0.005% sodium nitroprusside) and 70 μL of solution B (0.5% sodium hydroxide; 0.1% sodium hypochlorite) were immediately added to the wells in the dark and incubated for 5 min at 50 °C under shaking at 600 rpm. Urease activity was quantified by measuring absorbance at 670 nm. The inhibitory concentration capable of inhibiting 50% of urease activity (ureIC50) was determined by nonlinear regression calculation using the GraphPad Prism 5.0 software.

[5] = H99, Table S1, RPMI medium, C. neoformans H99, read-out: MIC
[6] = H99, Table S1, urea medium, C. neoformans H99, read-out: MIC
[7] = BSU series, 100% inhibition of yeast urease activity in urea medium
[8] = Table S1, urea medium, 100% inhibition of yeast urease activity
[9] = H99, Table S1, RPMI medium line, read-out: MFC
[10] = H99, Table S1, urea medium line, read-out: MFC
[11] = H99, 48 h, read-out: MIC RPMI, BSU series, 50% inhibition of fungal growth, RPMI medium, 35 °C, 48 h
[12] = H99, 48 h, read-out: MIC urea, BSU series, 50% inhibition of fungal growth, urea medium, 35 °C, 48 h
[13] = H99, Table S1, RPMI medium, C. neoformans H99
[14] = H99, Table S1, urea medium, C. neoformans H99
[15] = H99, BSU series, after assay in RPMI medium, ≥99% reduction of viability
[16] = H99, Table S1, RPMI medium line
[17] = H99, Table S1, urea medium line

Row | SMILES | MICURE [2, 7] [mg/L] | MICURE [2, 8] [mg/L] | IC50 [4] | MIC [1, 11] [µg/mL] | MIC [1, 12] [µg/mL] | MIC [1, 13] [µg/mL] | MIC [1, 14] [µg/mL] | MFC [3, 15] [µg/mL] | MFC [3, 16] [µg/mL] | MFC [3, 17] [µg/mL] | also measured
1 | O=C(NC(=[Se])Nc1ccccc1)c1ccccc1 [BSU1] | 0.06 | 0.06 | 4.88 nM |  |  |  |  |  |  |  | MIC ([1]; H99, 48 h, BSU series, 50% inhibition of fungal growth, RPMI medium, 35 °C, 48 h, read-out: MIC RPMI): 2 µg/mL (≈ 6.6 µM); MIC ([1]; H99, 48 h, BSU series, 50% inhibition of fungal growth, urea medium, 35 °C, 48 h, read-out: MIC urea): 0.06 µg/mL (≈ 0.198 µM); MIC [1, 5]: 2 µg/mL (≈ 6.6 µM); MIC [1, 6]: 0.06 µg/mL (≈ 0.198 µM); MFC ([3]; H99, BSU series, after assay in RPMI medium, ≥99% reduction of viability, read-out: MFC): 2 µg/mL (≈ 6.6 µM); MFC [3, 9]: 2 µg/mL (≈ 6.6 µM); MFC [3, 10]: 0.12 µg/mL (≈ 0.396 µM)
2 | Cc1ccc(NC(=[Se])NC(=O)c2ccccc2)cc1 [BSU2] | 0.5 | 0.5 | 1.07 nM | 16 (≈ 50.4 µM) | 0.5 (≈ 1.58 µM) | 16 (≈ 50.4 µM) | 0.5 (≈ 1.58 µM) | 16 (≈ 50.4 µM) | 16 (≈ 50.4 µM) | 1 (≈ 3.15 µM) | 
3 | CC(C)(C)c1ccc(NC(=[Se])NC(=O)c2ccccc2)cc1 [BSU3] |  | 16 | 0.95 nM and 0.946 nM | > 128 | > 128 | > 16 | 16 (≈ 44.5 µM) | > 128 | > 16 | > 16 | 
4 | COc1ccccc1NC(=[Se])NC(=O)c1ccccc1 [BSU4] | 0.5 | 0.25 | 2.33 nM and 2.34 nM | 8 (≈ 24 µM) | 0.5 (≈ 1.5 µM) | 16 (≈ 48 µM) | 0.5 (≈ 1.5 µM) | 8 (≈ 24 µM) | 16 (≈ 48 µM) | 0.5 (≈ 1.5 µM) | 
5 | COc1cccc(NC(=[Se])NC(=O)c2ccccc2)c1 [BSU5] | 0.12 | 0.12 | 14 nM | 1 (≈ 3 µM) | 0.12 (≈ 0.36 µM) | 8 (≈ 24 µM) | 0.25 (≈ 0.75 µM) | 1 (≈ 3 µM) | 16 (≈ 48 µM) | 0.25 (≈ 0.75 µM) | 
6 | O=C(NC(=[Se])Nc1ccc(Cl)cc1)c1ccccc1 [BSU6] | 0.25 | 8 | 3.02 nM | 16 (≈ 47.4 µM) | 0.5 (≈ 1.48 µM) | > 16 | 8 (≈ 23.7 µM) | 16 (≈ 47.4 µM) | > 16 | 16 (≈ 47.4 µM) | 
7 | O=C(NC(=[Se])Nc1cccc(Cl)c1)c1ccccc1 [BSU7] | 0.12 | 0.06 | 7.59 nM and 7.58 nM | 8 (≈ 23.7 µM) | 0.25 (≈ 0.74 µM) | 4 (≈ 11.8 µM) | 0.12 (≈ 0.355 µM) | 16 (≈ 47.4 µM) | 4 (≈ 11.8 µM) | 0.25 (≈ 0.74 µM) | 
8 | O=C(NC(=[Se])Nc1ccc(Br)cc1)c1ccccc1 [BSU8] | 8 | 0.5 | 4.04 nM and 4.03 nM | 128 (≈ 335 µM) | 8 (≈ 20.9 µM) | 8 (≈ 20.9 µM) | 0.5 (≈ 1.31 µM) | > 128 | 8 (≈ 20.9 µM) | 0.5 (≈ 1.31 µM) | 
9 | O=C(NC(=S)Nc1ccccc1)c1ccccc1 [BTU1] |  | 32 |  |  |  |  |  |  |  |  | MIC ([1]; H99, BTU series, 50% inhibition of fungal growth, RPMI medium, read-out: MIC RPMI): > 128 µg/mL; MIC ([1]; H99, BTU series, 50% inhibition of fungal growth, urea medium, read-out: MIC urea): 32 µg/mL (≈ 125 µM); MIC [1, 5]: > 128 µg/mL; MIC [1, 6]: 32 µg/mL (≈ 125 µM); MICURE ([2]; BTU series, 100% inhibition of yeast urease activity in urea medium): 32 mg/L; MFC ([3]; H99, BTU series, after assay in RPMI medium, read-out: MFC): > 128 µg/mL; MFC [3, 9]: > 128 µg/mL; MFC [3, 10]: 128 µg/mL (≈ 499 µM)
